Laboratory results as given in PMC10557233, “Controlled release of Clenbuterol from a hydroxyapatite carrier for the treatment of Alzheimer’s Disease” (Biomaterials Research, 2023).
Where two headings read alike, the source gives them in different places.

What was measured:
BV-2 microglial cells = experiment: Western blot analysis of LPS-induced inflammation; format: cell-based
Experimental: LPS (L2880, Sigma) was dissolved in normal saline before injection. BV2 cells were seeded in 6-well plates at a density of 10^5 cells/well and cultured for 1 day to allow full adhesion. […] Subsequently, LPS (1 µg/mL) was added to induce inflammation for 24 h. The medium was then removed and the BV2 cells were washed three times with PBS. The cells were then lysed in 100 µL of ice-cold radioimmunoprecipitation assay buffer, and protein concentrations were quantified using the Bio-Rad protein assay. Equal amounts of proteins were electrophoresed on a 10% sodium dodecyl sulfate-polyacrylamide gel. The separated proteins were transferred onto nitrocellulose membranes and incubated with primary monoclonal mouse antibodies (BIOTOOLS Co., Ltd., Taipei, Taiwan) against IL-6 (1:1000), IL-1β (1:1000), TNF-α (1:1000), and β-actin (1:5000) overnight at 4 °C. Following incubation with the appropriate secondary antibody, the signals were analyzed using an imaging system (Bio-Rad).

[1] = Plasma pharmacokinetics of CLB by LC-MS/MS after intramuscular administration; format: in vivo, SD rats
Experimental: (§1) The study used 60 male SD rats (BioLASCO, Taiwan; average age, 8 weeks). The study was approved by the Institutional Animal Care and Use Committee (No. 20,190,497) of National Taiwan University. CLB.HCl (Sigma-Aldrich C5423; Lot# BCBQ2163V) powder was stored at 4 °C and diluted in sterile 0.9% saline to a concentration of 20 µM based on the free base before injection. AlCl3 (7446-70-0, Sigma-Aldrich) was dissolved in normal saline before injection, and 70 mg/kg body weight of AlCl3 was administered intraperitoneally (i.p.) three times weekly for 8 weeks as previously described. […] After 8 weeks, several animal behavioral tests, histological staining, pharmacokinetics, and biochemical analyses were performed.
LC-MS/MS was used to perform quantitative analysis using an LCMS8030 system (Shimadzu, Japan). We used the multiple reaction monitoring mode for mass spectrometric analysis, and the MS/MS parameters were optimized by flow injection analysis. Plasma samples were prepared using simple protein precipitation in methanol. The specificity of the method was tested by analyzing blank rat plasma, blank rat plasma spiked with clenbuterol-d9 (internal standard, IS), and plasma samples collected after CLB administration. A Thermo Hypersil Gold aQ C18 column (50 mm × 2.1 mm) with a particle size of 1.9 μm was used for separation. The mobile phase gradient consisted of (A) 2% methanol in pure water + 0.1% formic acid, and (B) methanol with 0.1% formic acid. The gradient elution was as follows: 30% B (0 min), 30% B (0.5 min), 98% B (2.5 min), 98% B (3.5 min), 30% B (4 min), and 30% B (5.5 min) at a flow rate of 300 µL/min, with a total run time of […]. A calibration curve was constructed using the plasma concentration of the quality control (QC) sample and the peak area ratio (y) of the QC sample to the IS. The linear calibration curves of CLB ranged from 0.5 to 200 ng/mL, with correlation coefficients over 0.99952. The injection volume of the final solution was 20 µL for the serum specimens. To evaluate the accuracy, precision, and extraction recovery of the assay, three sequential assays were performed with six replicates of QC samples (5, 50, and 500 ng/mL CLB) for each assay. QC samples were prepared from normal blank rat plasma at concentrations of 0.5, 2, 5, 20, 50, 200, and 500 ng/mL of CLB. The concentrations of the QC samples were calculated based on the calibration curve and compared with those of the control samples with the same concentration. For the brain sample homogenization procedures, a brain sample and an equivalent weight of 25% plasma solution were mixed in a 50 mL centrifuge tube and homogenized completely at 30,000 rpm on ice. The resulting homogenized solution was centrifuged and the supernatant was collected as a test sample. The test sample was filtered through a 0.2 μm GHP filter, and 200 µL of the sample mixture was transferred into a new 96-well 1 mL round collection plate and sealed. Finally, the samples were placed in an autosampler to be injected.

L929 cell line = experiment: Biocompatibility by WST-1 assay (ISO 10993); format: cell-based
Experimental: The extracted supernatants were collected for subsequent experiments. Zinc diethyldithiocarbamate was used as a positive control and aluminum oxide was used as a negative control. After adding the WST-1 solution to the wells, the plate was incubated for 2 h, and the absorbance of each well was measured at 450 nm using a spectrophotometric plate reader (ELISA reader, Tecan Sunrise, Switzerland). The percentage of viable cells was calculated using the following equation:
Cell viability (%) = ((OD experiment - OD background) ×100)/ ((OD control - OD background))…(2).

[2] = tested on: rats with AlCl3-induced AD; experiment: Western blot of brain tissue for synapsin-1, synaptophysin, BACE1 and TNF-α; format: in vivo, SD rats; settings: compared with the AD group
Experimental: as §1

Aβ42 peptides = target: T1, Aβ42 peptides (Homo sapiens, UniProt P05067); experiment: Thioflavin T fluorescence assay and TEM of Aβ aggregation; format: biochemical
T1 construct: Aβ42 peptides were obtained from Peptide Institute, Inc; purchased Peptide Institute, Inc. (ASIA BIOSCIENCE Co., Ltd., Taiwan)
T1 sequence (P05067 672-713 limits assumed): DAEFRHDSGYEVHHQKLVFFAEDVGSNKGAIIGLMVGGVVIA
Experimental: Aβ42 peptides were obtained from Peptide Institute, Inc. (ASIA BIOSCIENCE Co., Ltd., Taiwan) and dissolved in hexafluoro-2-propanol (HFIP; Oakwood Products, Estill, SC, USA) to a final concentration of 1 mM for monomerization. The resulting solution was stored at − 80 °C. The monomerized peptides were resuspended in anhydrous DMSO (catalog number D-2650, Sigma) and diluted to a concentration of 100 µM using Dulbecco’s modified Eagle’s medium (DMEM, Sigma) before use. Aβ fibrils were formed by shaking the solution at 37 °C for 3 days. The morphology of the fibrils, with or without CLB incubation for 3 days, was observed using transmission electron microscopy (TEM). Samples were incubated with 1% uranyl acetate for 1 min before TEM.
The progression of amyloid β aggregation was tracked using thioflavin T (ThT), a fluorescent dye originally used to stain amyloid fibrils in histological samples. […] ThT fluorescence was measured at 25 °C using a spectrophotometric plate reader (ELISA reader, Tecan Sunrise, Switzerland) with an excitation filter at 450 nm and an emission filter at 482 nm, the computation of intensity was performed through the utilization of SoftMax Pro 7.0 software (Molecular Devices, CA, USA). After ThT binds to β-sheet aggregate structures, such as amyloid fibrils, its fluorescence emission changes, allowing the monitoring of amyloid β aggregation.

[3] = tested on: rats with AlCl3-induced AD; experiment: Morris water maze test in rats with AlCl3-induced AD; format: in vivo, SD rats; settings: 6 mg/kg intramuscular weekly, 8 weeks
Experimental: as §1
This study used a circular pool partitioned into four quadrants, one of which contained an underwater platform. […] After four training sessions, the time taken by the rats to reach the escape platform was measured using EthoVision software (Noldus Information Technology, Wageningen, Netherlands). […] To evaluate spatial memory, the time taken by each rat to reach the platform from the starting position was recorded. On the contrary, working memory was assessed by determining the amount of time spent by the rat in the same quadrant (up to 120 s) but without a platform. The time spent in the quadrant without a platform was also recorded.

[4] = Drug content in brain tissues by LC/MS/MS; format: in vivo, SD rats; settings: male, SD, 6 mg/kg; rat brain homogenate, intramuscular injection; read-out: Concentration in brain tissues 24 h after injection
Experimental: as §1
LC-MS/MS was used to perform quantitative analysis using an LCMS8030 system (Shimadzu, Japan). We used the multiple reaction monitoring mode for mass spectrometric analysis, and the MS/MS parameters were optimized by flow injection analysis. Plasma samples were prepared using simple protein precipitation in methanol. The specificity of the method was tested by analyzing blank rat plasma, blank rat plasma spiked with clenbuterol-d9 (internal standard, IS), and plasma samples collected after CLB administration. […] The concentrations of the QC samples were calculated based on the calibration curve and compared with those of the control samples with the same concentration. […]

N2a cell line = experiment: N2a cell viability versus concentration (IC50); format: cell-based; settings: Mus musculus; N2a cells; called predicted IC50; read-out: IC50 (concentration at which 50% cell survival was observed)
[5] = male, SD, im, rat plasma, 6 mg/kg intramuscular

Compound | protein expression levels of IL-1β, IL-6, and TNF-α (BV-2 microglial cells; LPS-induced BV-2 cells, western blot) | secretion of IL-1β, IL-6, and TNF-α (BV-2 microglial cells; LPS-stimulated BV-2 cells, 20 µM, vs LPS-treated control cells) | half-life ([1]; SD, rat, plasma, intramuscular, 6 mg/kg, rats) [h] | AUC(0-inf) [1, 5] [ng·h/mL] | Tmax [1, 5] [h] | AUC(0-t) ([1]; male, SD, im, rat plasma, 6 mg/kg intramuscular, 0.5-168 hr) [ng·h/mL] | Cmax ([1]; male, SD, rat, plasma, im, 6 mg/kg, rat plasma, 6 mg/kg intramuscular, read-out: Cmax) [ng/mL] | Cmax ([1]; rat plasma, 6 mg/kg intramuscular, 6 mg/kg) [ng/mL] | accumulation after multiple-dose administration ([1]; rats, repeated intramuscular dosing) | cell viability / cytotoxicity (L929 cell line; L929 cells, day 3, WST-1, extract medium) | expression of synapsin-1 and synaptophysin in hippocampus [2] | effect on Aβ aggregates (ThT fluorescence) (Aβ42 peptides; 10 µM Aβ incubated with 20 µM CLB) | effect on Aβ fibrils (TEM) (Aβ42 peptides; Aβ and CLB co-incubated for 3 days) | time to locate the escape platform (MWM) [3] | concentration at 24 h [4] [ng/mL] | IC50 (N2a cell line) [µM] | cell viability / cytotoxicity (L929 cell line)
CC(C)(C)NCC(O)c1cc(Cl)c(N)c(Cl)c1 (centres unmarked) [CLB, Clenbuterol] | prominently reduced | significant inhibitory effects | ~30 | 5200 ± 4000 | 4 | 4890 ± 3740 | 120 ± 12.8 | 120.19 | no apparent accumulation | no notable disparities in cell viability | significant increase | extensive fragmentation | disassembled amyloid plaques | did not exhibit a performance similar to that of the SHAP-CLB group | 5.24 ± 1.81 | 20 | 
Hydroxyapatite [HAP] |  |  |  |  |  |  |  |  |  |  |  |  |  |  |  |  | no notable disparities in cell viability
